Measurements taken from US20230085307A1, “PYRIDAZINONE COMPOUND AND HERBICIDE” (NISSAN CHEMICAL CORPORATION, priority 2019, published 2023).

Experiments:
persian speedwell = experiment: Test Example 5: herbicidal effect by foliage application, plastic box (Table 20, symbol R); format: in vivo, Persian speedwell (Veronica persica); conditions: foliage application, 320 g/ha, three weeks after application
Summary of the method: (§1)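 Plants were sown into sterilized diluvial soil under about 1.5 cm cover and kept in a greenhouse at 25° C. to 30° C. Fourteen days on, foliage received an even spray of the diluted emulsion. Herbicidal or crop effect was judged three weeks afterwards.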

lambsquarters = experiment: Test Example 4: herbicidal effect by soil treatment (Table 19, symbol O); format: in vivo, lambsquarters (Chenopodium album); conditions: amount of applied herbicide 320 g/ha
Summary of the method: (§2)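 Pre-emergence style soil spray: seeds under ~1.5 cm sterilized diluvial soil received a uniform coat of emulsion diluted to the predetermined herbicide amount. Greenhouse 25–30° C; readout at week three on previously defined criteria.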

wild oat = experiment: Test Example 4: herbicidal effect by soil treatment (Table 19, symbol I); format: in vivo, wild oat (Avena fatua); conditions: amount of applied herbicide 320 g/ha
Summary of the method: as §2

late watergrass = experiment: Test Example 2: herbicidal activity, application during weed generation under submerged conditions (Table 17, symbol A); format: in vivo, late watergrass (Echinochloa oryzicola); conditions: AAH 320 g/ha; application during weed generation, submerged conditions
Summary of the method: (§3)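 Steps: fill Wagner pots with alluvial soil; add water to give 4 cm depth; sow the species mixed; grow under glass at 25–30° C.; at 1–2 leaves apply water-diluted emulsion formulation to the water surface at a fixed herbicide amount; score after 3 weeks.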

blackgrass [1] = experiment: Test Example 4: herbicidal effect by soil treatment (Table 19, symbol J); format: in vivo, blackgrass (Alopecurus myosuroides); conditions: amount of applied herbicide 320 g/ha
Summary of the method: as §2

Japanese bulrush = experiment: Test Example 2: herbicidal activity, application during weed generation under submerged conditions (Table 17, symbol B); format: in vivo, Japanese bulrush (Schoenoplectus juncoides); conditions: AAH 320 g/ha; application during weed generation, submerged conditions
Summary of the method: as §3

barnyard grass [2] = experiment: Test Example 4: herbicidal effect by soil treatment (Table 19, symbol H); format: in vivo, barnyard grass (Echinochloa crus-galli); conditions: amount of applied herbicide 320 g/ha
Summary of the method: as §2

blackgrass [3] = experiment: Test Example 5: herbicidal effect by foliage application, plastic box (Table 20, symbol J); format: in vivo, blackgrass (Alopecurus myosuroides); conditions: foliage application, 320 g/ha, three weeks after application
Summary of the method: as §1

green foxtail = experiment: Test Example 4: herbicidal effect by soil treatment (Table 19, symbol G); format: in vivo, green foxtail (Setaria viridis); conditions: amount of applied herbicide 320 g/ha
Summary of the method: as §2

chickweed [4] = experiment: Test Example 5: herbicidal effect by foliage application, plastic box (Table 20, symbol P); format: in vivo, common chickweed (Stellaria media); conditions: foliage application, 320 g/ha, three weeks after application
Summary of the method: as §1

velvetleaf [5] = experiment: Test Example 5: herbicidal effect by foliage application, plastic box (Table 20, symbol M); format: in vivo, velvetleaf (Abutilon theophrasti); conditions: foliage application, 320 g/ha, three weeks after application
Summary of the method: as §1

redroot pigweed = experiment: Test Example 5: herbicidal effect by foliage application, plastic box (Table 20, symbol N); format: in vivo, redroot pigweed (Amaranthus retroflexus); conditions: foliage application, 320 g/ha, three weeks after application
Summary of the method: as §1

Italian ryegrass [6] = experiment: Test Example 4: herbicidal effect by soil treatment (Table 19, symbol K); format: in vivo, Italian ryegrass (Lolium multiflorum); conditions: amount of applied herbicide 320 g/ha
Summary of the method: as §2

velvetleaf [7] = experiment: Test Example 4: herbicidal effect by soil treatment (Table 19, symbol M); format: in vivo, velvetleaf (Abutilon theophrasti); conditions: amount of applied herbicide 320 g/ha
Summary of the method: as §2

Italian ryegrass [8] = experiment: Test Example 5: herbicidal effect by foliage application, plastic box (Table 20, symbol K); format: in vivo, Italian ryegrass (Lolium multiflorum); conditions: foliage application, 320 g/ha, three weeks after application
Summary of the method: as §1

chickweed [9] = experiment: Test Example 4: herbicidal effect by soil treatment (Table 19, symbol P); format: in vivo, common chickweed (Stellaria media); conditions: amount of applied herbicide 320 g/ha
Summary of the method: as §2

barnyard grass [10] = experiment: Test Example 3: herbicidal effect by foliage application, Wagner pot (Table 18, symbol H); format: in vivo, barnyard grass (Echinochloa crus-galli); conditions: amount of applied herbicide 320 g/ha
Summary of the method: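 Plants were sown in alluvial soil held under 0.1–0.5 cm standing water and grown 14 days in a greenhouse at 25–30 °C. An emulsifiable formulation, water-diluted to the set dose, was then sprayed onto the foliage, and effects were scored three weeks later using previously defined criteria.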

| Compound | R: persian speedwell, herbicidal effect grade (persian speedwell) | herbicidal effect, O: lambsquarters (lambsquarters) | herbicidal effect, I: wild oat (wild oat) | herbicidal effect rating, A: late watergrass (late watergrass) | herbicidal effect, J: blackgrass (blackgrass [1]) | herbicidal effect rating, B: Japanese bulrush (Japanese bulrush) | herbicidal effect, H: barnyard grass (barnyard grass [2]) | J: blackgrass, herbicidal effect grade (blackgrass [3]) | herbicidal effect, G: green foxtail (green foxtail) | P: chickweed, herbicidal effect grade (chickweed [4]) | M: velvetleaf, herbicidal effect grade (velvetleaf [5]) | N: redroot pigweed, herbicidal effect grade (redroot pigweed) | herbicidal effect, K: Italian ryegrass (Italian ryegrass [6]) | herbicidal effect, M: velvetleaf (velvetleaf [7]) | K: Italian ryegrass, herbicidal effect grade (Italian ryegrass [8]) | herbicidal effect, P: chickweed (chickweed [9]) | herbicidal effect on H: barnyard grass (barnyard grass [10]) | other results |
| --- | --- | --- | --- | --- | --- | --- | --- | --- | --- | --- | --- | --- | --- | --- | --- | --- | --- | --- |
| CCCC(=O)Oc1c(C)nn(C)c(=O)c1-c1c(-c2ccccc2OCC)sc2cc(F)ccc12 [3-007] | 5 (Herbicidal rate of 90% or more (almost completely withered)) | 0 (Herbicidal rate of 5% or less (almost no effect)) | 2 (Herbicidal rate of 20% or more and less than 40%) | 3 (Herbicidal rate of 40% or more and less than 70%) | 3 (Herbicidal rate of 40% or more and less than 70%) | 4 (Herbicidal rate of 70% or more and less than 90%) | 0 (Herbicidal rate of 5% or less (almost no effect)) | 5 (Herbicidal rate of 90% or more (almost completely withered)) | 3 (Herbicidal rate of 40% or more and less than 70%) | 5 (Herbicidal rate of 90% or more (almost completely withered)) | 5 (Herbicidal rate of 90% or more (almost completely withered)) | 5 (Herbicidal rate of 90% or more (almost completely withered)) | 4 (Herbicidal rate of 70% or more and less than 90%) | 4 (Herbicidal rate of 70% or more and less than 90%) | 5 (Herbicidal rate of 90% or more (almost completely withered)) | 5 (Herbicidal rate of 90% or more (almost completely withered)) | 5 (Herbicidal rate of 90% or more (almost completely withered)) |  |
| COc1ccccc1-c1sc2cc(F)ccc2c1-c1c(OC(=O)c2ccco2)c(C)nn(C)c1=O [3-023] | 3 (Herbicidal rate of 40% or more and less than 70%) | 2 (Herbicidal rate of 20% or more and less than 40%) | 0 (Herbicidal rate of 5% or less (almost no effect)) | 2 (Herbicidal rate of 20% or more and less than 40%) | 4 (Herbicidal rate of 70% or more and less than 90%) | 2 (Herbicidal rate of 20% or more and less than 40%) | 4 (Herbicidal rate of 70% or more and less than 90%) | 5 (Herbicidal rate of 90% or more (almost completely withered)) | 4 (Herbicidal rate of 70% or more and less than 90%) | 5 (Herbicidal rate of 90% or more (almost completely withered)) | 5 (Herbicidal rate of 90% or more (almost completely withered)) | 5 (Herbicidal rate of 90% or more (almost completely withered)) | 5 (Herbicidal rate of 90% or more (almost completely withered)) | 0 (Herbicidal rate of 5% or less (almost no effect)) | 5 (Herbicidal rate of 90% or more (almost completely withered)) | 4 (Herbicidal rate of 70% or more and less than 90%) | 5 (Herbicidal rate of 90% or more (almost completely withered)) |  |
| COc1ccccc1-c1sc2cc(F)ccc2c1-c1c(OS(=O)(=O)c2ccc(C)cc2)c(C)nn(C)c1=O [3-027] | 0 (Herbicidal rate of 5% or less (almost no effect)) |  |  | 3 (Herbicidal rate of 40% or more and less than 70%) |  | 2 (Herbicidal rate of 20% or more and less than 40%) |  | 4 (Herbicidal rate of 70% or more and less than 90%) |  | 3 (Herbicidal rate of 40% or more and less than 70%) | 5 (Herbicidal rate of 90% or more (almost completely withered)) | 5 (Herbicidal rate of 90% or more (almost completely withered)) |  |  | 3 (Herbicidal rate of 40% or more and less than 70%) |  | 5 (Herbicidal rate of 90% or more (almost completely withered)) | O: lambsquarters, herbicidal effect grade (lambsquarters): 0 (Herbicidal rate of 5% or less (almost no effect)); I: wild oat, herbicidal effect grade (wild oat): 0 (Herbicidal rate of 5% or less (almost no effect)); J: blackgrass, herbicidal effect grade (blackgrass [1]): 3 (Herbicidal rate of 40% or more and less than 70%); H: barnyard grass, herbicidal effect grade (barnyard grass [2]): 0 (Herbicidal rate of 5% or less (almost no effect)); G: green foxtail, herbicidal effect grade (green foxtail): 0 (Herbicidal rate of 5% or less (almost no effect)); K: Italian ryegrass, herbicidal effect grade (Italian ryegrass [6]): 0 (Herbicidal rate of 5% or less (almost no effect)); M: velvetleaf, herbicidal effect grade (velvetleaf [7]): 0 (Herbicidal rate of 5% or less (almost no effect)); P: chickweed, herbicidal effect grade (chickweed [9]): 0 (Herbicidal rate of 5% or less (almost no effect)) |
